Laboratory results as given in ChEMBL document CHEMBL1142178, “Lysostaphin-resistant variants of Staphylococcus aureus demonstrate reduced fitness in vitro and in vivo” (2007).

Legend:
Format in all cases: functional
Staphylococcus aureus [1] = assay: Antibacterial activity against methicillin-resistant Staphylococcus aureus Col
Staphylococcus aureus [2] = assay: Antibacterial activity against methicillin-resistant Staphylococcus aureus Col-LysoR
Staphylococcus aureus [3] = assay: Antibacterial activity against methicillin-resistant Staphylococcus aureus MBT 5040
Staphylococcus aureus [4] = assay: Antibacterial activity against methicillin-resistant Staphylococcus aureus MBT 5040-LysoR
Staphylococcus aureus [5] = assay: Antibacterial activity against methicillin-resistant Staphylococcus aureus Col and Staphylococcus aureus Col-LysoR co-infected in CF1 mouse assessed as kidney infection after 7 days
Staphylococcus aureus [6] = assay: Antibacterial activity against methicillin-resistant Staphylococcus aureus Col in CF1 mouse assessed as kidney infection after 7 days
Staphylococcus aureus [7] = assay: Antibacterial activity against methicillin-resistant Staphylococcus aureus MBT 5040 in CF1 mouse assessed as kidney infection after 7 days
Staphylococcus aureus [8] = assay: Antibacterial activity against methicillin-resistant Staphylococcus aureus MBT 5040 and Staphylococcus aureus MBT 5040-LysoR co-infected in CF1 mouse assessed as kidney infection after 7 days

SMILES | MIC (Staphylococcus aureus [1]) [mg/L] | MIC (Staphylococcus aureus [2]) [mg/L] | MIC (Staphylococcus aureus [3]) [mg/L] | MIC (Staphylococcus aureus [4]) [mg/L] | CFU (Staphylococcus aureus [5]) | CFU (Staphylococcus aureus [6]) | CFU (Staphylococcus aureus [7]) | CFU (Staphylococcus aureus [8])
Cc1onc(-c2ccccc2)c1C(=O)N[C@@H]1C(=O)N2[C@@H]1SC(C)(C)[C@@H]2C(=O)[O-].[Na+] | > 32 | 0.25 | > 32 | 0.25 |  |  |  | 
CCOc1ccc2ccccc2c1C(=O)N[C@@H]1C(=O)N2[C@@H]1SC(C)(C)[C@@H]2C(=O)O [NAFCILLIN] |  |  |  |  | 10780 | 9960 | 5630 | 9520
